“Also recorded” adds a separate entry of the source.
How the values were obtained:
cyclophilins = conditions: binding to the active site; cited from earlier work
From the text: Catalytically active cyclophilins with a single cyclophilin domain reported till now are monomeric in nature.

[1] = molecular target: FITC-labeled Myb1^104–111 peptide (Trichomonas vaginalis); assay: fluorescence polarisation
[2] = molecular target: Cyclophilin 1 (TvCyP1) of Trichomonas vaginalis (Trichomonas vaginalis); assay: SEC-MALS; 300 μg TvCyP1 (3 mg/mL) on ENrich SEC 70 column; 20 mM monosodium phosphate, 50 mM NaCl, 0.5 mM NaN3, pH 6.0, 25 °C
[3] = molecular target: Cyclophilin 1 (TvCyP1) of Trichomonas vaginalis (Trichomonas vaginalis); assay: AUC; sedimentation velocity, 29 μM TvCyP1 (legend: 30 μM), 20 °C, 50,000 rpm; 20 mM monosodium phosphate, 50 mM NaCl, 0.5 mM NaN3, pH 6.0; Sedfit
TvCyP1 = assay: NMR ROESY cis/trans isomerization (PPIase) of P107 in Myb1^104–111; assay type: biochemical, Trichomonas vaginalis
Description: ^1H-TOCSY, ^1H-COSY and ^1H-NOESY were performed at 300 K with a mixing time of 75 ms (TOCSY) and 300 ms (NOESY) on the Myb1^104–111 peptide to complete the assignment of proton resonances. The peptide was dissolved in 20 mM monosodium phosphate, 50 mM NaCl, 0.5 mM NaN3 (pH 6.0) to obtain a concentration of 2 mM. All ROESY experiments were performed at 300 K with 300 ms mixing time. […]

parasite = conditions: cited from earlier work
From the text: In most cases, the biological substrates of these cyclophilins are unknown and extensive structural studies on cyclophilin- substrate interactions have not been reported.

isoforms of cyclophilins = system: isoforms of cyclophilins; set-up: method as in PMID 20676357; conditions: cited from earlier work
[4] = cited from earlier work
From the text: Nuclear translocation of Myb1 is an important step regulating the expression of disease causing ap65–1 gene. […] Moreover, CsA is not specific to any of the isof ...

Compound	inhibition of PPIase activity of cyclophilins (cyclophilins)	Kd [1] [µM]	stoichiometry N [2]	stoichiometry N [3]	inhibition of TvCyP1 isomerase activity (TvCyP1; ROESY, 300 ms mixing time, 300 K, pH 6.0, CsA 22 μM (1.0 molar equivalent), 4.4 mM Myb1^104–111, 22 μM TvCyP1)	inhibition of Myb1^104–111 binding to TvCyP1 active site (TvCyP1; from ROESY experiments, CsA)	anti-parasitic activity (parasite)	isoform specificity (isoforms of cyclophilins)	immunosuppressive activity [4]
CC[C@H]1C[C@H](C)[C@@]2(NC1=O)O[C@@H](C[C@H](O)[C@@H](C)CC/C=C/C=C(\C)[C@@H]1C/C=C/C=C/[C@H](O)[C@H](C)[C@@H](O)[C@@H](CCC(C)=O)C(=O)N[C@@H](C(C)C)C(=O)N[C@@H](Cc3cccc(O)c3)C(=O)N3CCC[C@H](N3)C(=O)O1)[C@H](C)[C@H](O)[C@@H]2C [sanglifehrin A (SfA), sanglifehrin A]	PPIase activity of cyclophilins can be inhibited								
Cyclophilin 1 (TvCyP1) of Trichomonas vaginalis (enzyme)		16.8	2	2					
cyclosporin A [CsA]	PPIase activity of cyclophilins can be inhibited				hindered catalysis; also recorded: loss of the exchange cross-peaks between cis and trans resonances	can inhibit Myb1^104–111 binding to the active site	have been found with anti-parasitic activity	not specific to any of the isoforms of cyclophilins	deleterious effect of its immunosuppressive activity

Source: PMC5882848, “Structural basis of interaction between dimeric cyclophilin 1 and Myb1 transcription factor in Trichomonas vaginalis” (Scientific Reports, 2018)
